# Tests used:
# RS4; 11 cells = test: MTS cell viability assay in RS4; 11 cells; format: cell-based, human
# Experimental: (§6) Cell viability was measured by tetrazolium-based MTS assay and IC50 was calculated as a percentage of vehicle-treated cells.
# H146 cells = test: MTS cell viability assay in H146 cells; format: cell-based, human
# Experimental: (§1) Small cell lung cancer H146 cells were incubated either with 500 nM ABT-199 (Bcl-2 inhibitor) or 125 nM compound #55 or the combination of both for 72 h. The cell viability was measured using MTS assay. The combination indices (CI) were calculated using formula CI=AB/(A×B); where AB is the percent cell inhibition by the combination whereas A and B are the percent cell inhibition by individual agents. CI<1 indicates synergism, whereas CI<0.3 indicates strong synergism.
# EJM cells = test: MTS cell viability assay in EJM cells; format: cell-based, human
# Experimental: as §1, with “Multiple Myeloma EJM” for “Small cell lung cancer H146”, “250” for “500”, “S63845 (Mcl-1” for “ABT-199 (Bcl-2”
# H929 cells = test: MTS cell viability assay in H929 cells; format: cell-based, human; conditions: Mcl-1-dependent H929 cells, 72 h
# Experimental: as §6
# platelets = test: Platelet toxicity; format: cell-based; conditions: up to 3 μM; data not shown
# Bcl-w = molecular target: T1, Bcl-w (Homo sapiens, UniProt Q92843); test: AlphaLISA competitive binding assay, Bcl-w; conditions: His-tagged Bcl-w, biotin-tagged BIM peptide, 24 h incubation
# T1 construct: purchased Sigma-Aldrich
# T1 sequence (Q92843 1-193): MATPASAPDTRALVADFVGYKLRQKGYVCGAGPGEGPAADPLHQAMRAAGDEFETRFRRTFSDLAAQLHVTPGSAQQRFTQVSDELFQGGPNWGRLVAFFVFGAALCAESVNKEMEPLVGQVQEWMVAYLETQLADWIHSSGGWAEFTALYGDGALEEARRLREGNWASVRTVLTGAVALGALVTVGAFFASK
# Experimental: (§2) Purified recombinant His-tagged Bcl-xL/Bcl-2/Bcl-w (Sigma-Aldrich, St. Louis, MO) were incubated with increasing concentrations of compound #55 and a fixed concentration of biotin-tagged Bad (for Bcl-xL) or BIM peptides (for Bcl-2 and Bcl-w) (AnaSpec, Fremont, CA) to a final volume of 40 µL in 96-well PCR plate. After 24 h incubation, 5 μL 6×His-Acceptor beads (final concentration 20 μg/mL) (PerkinElmer, Houston, TX) were added to each well and incubated for 1 h. Thereafter, 5 μL streptavidin-donor beads were added (final concentration 20 μg/mL) (PerkinElmer) to each well and incubated for 0.5 h. At the end of the incubation period, 17 μL of each sample was transferred in adjacent wells of 384-well proxy plate. The plate was scanned using Alpha program on Biotek's Synergy Neo2 multi-mode plate reader. The inhibition constant (Ki) was calculated using non-linear regression, one site, competitive binding, Fit Ki function on GraphPad Prism based on experimentally determined Kd for each protein/peptide pair.
# [1] = test system: caspase-3 and poly (ADP) ribose polymerase (PARP); test: Western blot of cleaved caspase-3 and PARP in MOLT4 cells; format: cell-based, human; conditions: 0.1 and 0.3 μM, 24 h
# Experimental: At the end of incubation, cells were harvested for western blot analysis of cleaved and full length caspase-3 and poly (ADP) ribose polymerase (PARP). The antibodies for cleaved caspase-3 (Cat #9661), full length caspase-3 (Cat #9662), and PARP (Cat #9532) were purchased from Cell Signaling Technology. A single Anti-PARP antibody used can detect both cleaved and full length PARP.
# Mcl-1 [2] = molecular target: T2, Mcl-1 (Homo sapiens, UniProt Q07820); test: Western blot Mcl-1 levels in MOLT4 cells; format: cell-based; design: endogenous in cells; conditions: 16 h
# T2 sequence (Q07820 whole entry): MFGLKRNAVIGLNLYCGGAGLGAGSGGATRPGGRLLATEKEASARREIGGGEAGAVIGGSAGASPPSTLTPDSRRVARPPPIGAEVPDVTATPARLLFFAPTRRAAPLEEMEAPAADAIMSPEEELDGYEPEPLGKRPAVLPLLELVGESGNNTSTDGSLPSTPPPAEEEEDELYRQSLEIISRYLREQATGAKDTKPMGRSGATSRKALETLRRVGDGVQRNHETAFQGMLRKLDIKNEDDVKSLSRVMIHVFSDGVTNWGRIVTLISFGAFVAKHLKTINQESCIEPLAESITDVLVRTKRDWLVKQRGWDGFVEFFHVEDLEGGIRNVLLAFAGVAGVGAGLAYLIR
# Experimental: (§3) MOLT4 cells and human platelets were incubated with increasing concentrations of compound #55 for 16 h. The cells were harvested and lysed in RIPA lysis buffer supplemented with protease and phosphatase inhibitor cocktails. An equal amount of protein (20 μg/lane) was resolved on a pre-cast 4-20% SDS-PAGE gel. Proteins were subsequently transferred to NOVEX PVDF membranes by electrophoresis. The membranes were blocked in blocking buffer (5% non-fat dry milk in TBS-T), and incubated with primary antibodies (at optimized concentrations) overnight at 4° C. After three washings in TBS-T, the membranes were incubated with an appropriate HRP-conjugated secondary antibody for 1 h at room temperature. After extensive washing for three times, the proteins of interest were detected with ECL western blotting detection reagents and recorded with autoradiography (Pierce Biotech, Rockford, IL, USA). The primary antibodies for Bcl-xL (Cat #2762), Bcl-2 (Cat #2872), Mcl-1 (Cat #5453) and β-actin (Cat #4970) were purchased from Cell Signaling technology. The relative band intensity was measured using ImageJ software and normalized to b-actin. The DC50 (concentration with 50% degradation) was calculated using GraphPad Prism. […] Bcl-2 levels were not detected, whereas Mcl-1 was unaffected with compound #55 treatment in MOLT4 cells (FIGS. 1B and 1D). […]
# Bcl-xL [3] = molecular target: T3, Bcl-xL (Homo sapiens, UniProt Q07817); test: Western blot Bcl-XL degradation in additional cancer cells; format: cell-based; design: endogenous in cells; conditions: RS4; 11, EJM, H929 (16 h), H146 (48 h); fixed concentration
# T3 sequence (Q07817 whole entry): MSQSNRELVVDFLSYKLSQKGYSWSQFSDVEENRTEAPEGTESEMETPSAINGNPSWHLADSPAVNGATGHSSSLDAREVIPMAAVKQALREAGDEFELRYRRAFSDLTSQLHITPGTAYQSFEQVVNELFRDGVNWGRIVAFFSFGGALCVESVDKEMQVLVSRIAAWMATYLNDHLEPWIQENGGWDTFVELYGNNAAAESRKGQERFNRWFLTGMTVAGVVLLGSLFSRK
# Experimental: as §3, with “The primary antibodies for Bcl-xL (Cat #2762), Bcl-2 (Cat #2872), Mcl-1 (Cat #5453) and β-actin (Cat #4970) were purchased from Cell Signaling technology.” left out
# (§4) Tumor cells were incubated with a fixed concentration of compound #55 for 16 h (RS4; 11, EJM, H929) or 48 h (H146) and Bcl-2/Bcl-xL/Mcl-1 levels were determined using Western blot analysis as described above.
# Bcl-xL [4] = molecular target: T3, Bcl-xL; test: AlphaLISA competitive binding assay, Bcl-xL; design: purchased Sigma-Aldrich; conditions: His-tagged Bcl-xL, biotin-tagged Bad peptide, 24 h incubation
# Experimental: as §2
# Bcl-2 [5] = molecular target: T4, Bcl-2 (Homo sapiens, UniProt P10415); test: AlphaLISA competitive binding assay, Bcl-2; design: purchased Sigma-Aldrich; conditions: His-tagged Bcl-2, biotin-tagged BIM peptide, 24 h incubation
# T4 sequence (P10415 whole entry): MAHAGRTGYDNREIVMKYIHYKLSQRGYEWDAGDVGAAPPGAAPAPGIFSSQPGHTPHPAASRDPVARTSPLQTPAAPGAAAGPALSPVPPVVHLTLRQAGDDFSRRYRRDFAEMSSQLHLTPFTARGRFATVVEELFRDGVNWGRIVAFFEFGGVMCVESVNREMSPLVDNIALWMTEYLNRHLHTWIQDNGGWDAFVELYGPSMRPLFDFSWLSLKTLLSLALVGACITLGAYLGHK
# Experimental: as §2
# MOLT4 cells = test: MTS cell viability assay in MOLT4 cells
# Experimental: as §6
# Bcl-xL [6] = molecular target: T3, Bcl-xL; test: Western blot Bcl-xL degradation assay in MOLT4 cells; format: cell-based; design: endogenous in cells; host or cells: MOLT4
# Experimental: (§5) MOLT4 cells and human platelets were incubated with increasing concentrations of compound #55 for 16 h. The cells were harvested and lysed in RIPA lysis buffer supplemented with protease and phosphatase inhibitor cocktails. An equal amount of protein (20 μg/lane) was resolved on a pre-cast 4-20% SDS-PAGE gel. Proteins were subsequently transferred to NOVEX PVDF membranes by electrophoresis. The membranes were blocked in blocking buffer (5% non-fat dry milk in TBS-T), and incubated with primary antibodies (at optimized concentrations) overnight at 4° C. After three washings in TBS-T, the membranes were incubated with an appropriate HRP-conjugated secondary antibody for 1 h at room temperature. After extensive washing for three times, the proteins of interest were detected with ECL western blotting detection reagents and recorded with autoradiography (Pierce Biotech, Rockford, IL, USA). The primary antibodies for Bcl-xL (Cat #2762), Bcl-2 (Cat #2872), Mcl-1 (Cat #5453) and β-actin (Cat #4970) were purchased from Cell Signaling technology. The relative band intensity was measured using ImageJ software and normalized to b-actin. The DC50 (concentration with 50% degradation) was calculated using GraphPad Prism. […] Bcl-2 levels were not detected, whereas Mcl-1 was unaffected with compound #55 treatment in MOLT4 cells (FIGS. 1B and 1D). […] The DC50 and Dmax values of compound #55 in platelets were >3 μM and 26%, respectively (FIG. 1E).
# MOLT4 cells were incubated with a fixed concentration of compound #55 for increasing time points. In another experiment, cells were treated for 16 hours followed by drug withdrawal and further cultured for increasing time-points before harvesting them for Bcl-xL degradation assays. Bcl-xL levels were measured using Western blot analysis as described above. The relative band intensity was measured using ImageJ software and normalized to equal loading control β-actin.
# Cell viability was measured by MTS assay.
# Third, we sought to confirm that compound #55-induced Bcl-xL degradation depends on proteasomal activity.
# Fourth, we sought to confirm that Bcl-xL degardation by compound #55 requires the binding with Bcl-xL protein.
# Bcl-xL [7] = molecular target: T3, Bcl-xL; test: Western blot Bcl-xL degradation assay in human platelets; format: cell-based; design: endogenous in cells; host or cells: MOLT4; conditions: 16 h
# Experimental: as §5
# Bcl-2 [8] = molecular target: T4, Bcl-2; test: Western blot Bcl-2 levels in additional cancer cells; format: cell-based; design: endogenous in cells; host or cells: RS4;11, EJM, H929, H146; conditions: RS4; 11, EJM, H929 (16 h), H146 (48 h); fixed concentration
# Experimental: as §3, with “The primary antibodies for Bcl-xL (Cat #2762), Bcl-2 (Cat #2872), Mcl-1 (Cat #5453) and β-actin (Cat #4970) were purchased from Cell Signaling technology.” left out
# as §4
# Mcl-1 [9] = molecular target: T2, Mcl-1; test: Western blot Mcl-1 levels in additional cancer cells; format: cell-based; design: endogenous in cells; host or cells: RS4;11, EJM, H929, H146; conditions: RS4; 11, EJM, H929 (16 h), H146 (48 h); fixed concentration
# Experimental: as §3, with “The primary antibodies for Bcl-xL (Cat #2762), Bcl-2 (Cat #2872), Mcl-1 (Cat #5453) and β-actin (Cat #4970) were purchased from Cell Signaling technology.” left out
# as §4
compound,measurement,setting,value
"(2S,4R)-1-((S)-2-(7-(4-((R)-3-((4-(N-(4-(4-((4′- Chloro-4,4-dimethyl- 3,4,5,6-tetrahydro-[1,1′-biphenyl]-2- yl)methyl)piperazin-1-yl)benzoyl)sultamoyl)-2- ((trifluoromethyl)sulfonyl)phenyl)amino)-4- (phenylthio)butyl)piperazin-1-yl)-7- oxoheptanamido)-3,3-dimethylbutanoyl)-4-hydroxy- N-((S)-1-(4-(4-methylthiazol-5- yl)phenyl)ethyl)pyrrolidine-2-carboxamide [compound #55]",IC50,"RS4; 11 cells; Bcl-2-dependent RS4, 72 h, MTS, read-out: IC50 loss of cell viability",230 nM
same,effect on cell viability compared with ABT-263,"RS4; 11 cells; RS4, 72 h",less prominent than ABT-263
same,IC50,"H146 cells; Bcl-2/Bcl-xL-dependent H146 cells, 72 h, MTS, read-out: IC50 loss of cell viability",160 nM
same,loss of cell viability in combination with ABT-199,"H146 cells; H146 cells, 125 nM compound #55 + 500 nM ABT-199, 72 h, MTS",synergistically induce the loss of cell viability
same,effect on cell viability compared with ABT-263,"H146 cells; H146 cells, 72 h",less prominent than ABT-263
same,loss of cell viability in combination with S63845,"EJM cells; EJM cells, 125 nM compound #55 + 250 nM S63845, 72 h",synergistically induce the loss of cell viability
same,cellular activity,"EJM cells; Mcl-1-dependent EJM cells, 72 h",did not show any significant cellular activity
same,cellular activity,H929 cells,did not show any significant cellular activity
same,platelet toxicity,platelets,did not induce any significant platelet toxicity
same,Ki,Bcl-w,301 nM
same,cleavage of caspase-3 and PARP,[1],induced cleavage of caspase-3 and PARP
same,cleavage of caspase-3 and PARP compared with ABT263,[1],more pronounced than ABT263
same,Mcl-1 levels,Mcl-1 [2],unaffected
same,Bcl-XL degradation,Bcl-xL [3],capable of degrading Bcl-XL in all these cell lines
same,Ki,Bcl-xL [4],12.8 nM
same,Ki,Bcl-2 [5],1.82 nM
same,cell killing in the presence of VHL-L,"MOLT4 cells; MOLT4 cells pretreated with 1 and 2 μM VHL-L for 1 h, then 72 h",abrogated
same,IC50,"MOLT4 cells; read-out: IC50 cell viability, Bcl-XL-dependent MOLT4 cells, 72 h, MTS",52 nM
same,Bcl-xL degradation in ABT263-pretreated cells,"Bcl-xL [6]; 1 μM ABT-263 pretreatment, 0.1 and 1 μM, 16 h",did not induce Bcl-xL degradation
same,Bcl-xL degradation in MG132-pretreated cells,"Bcl-xL [6]; 1 μM MG132 pretreatment, 0.1 and 1 μM, 6 h",did not induce Bcl-xL degradation
same,Dmax (maximum degradation) of Bcl-xL,Bcl-xL [6]; 16 h,90.8%
same,DC50,"Bcl-xL [6]; 16 h, read-out: DC50 (concentration with 50% degradation) of Bcl-xL",63 nM
same,Bcl-xL degradation in VHL-L-pretreated cells,"Bcl-xL [6]; VHL-L pretreatment, then 16 h",did not induce Bcl-xL degradation
same,time at which significant Bcl-xL degradation starts,"Bcl-xL [6]; fixed concentration, increasing time points",2 h
same,Bcl-xL degrading activity after drug withdrawal,Bcl-xL [6]; treated 16 hours then drug withdrawal,able to sustain its Bcl-xL degrading activity for prolonged period after drug withdrawal
same,Bcl-xL levels,Bcl-xL [7],did not affect Bcl-xL levels
same,DC50,Bcl-xL [7],> 3000 nM
same,Dmax of Bcl-xL,Bcl-xL [7],26%
same,effect on Bcl-2 levels,Bcl-2 [8],sparing Bcl-2 and Mcl-1
same,effect on Mcl-1 levels,Mcl-1 [9],sparing Bcl-2 and Mcl-1
"CC1(C)CCC(c2ccc(Cl)cc2)=C(CN2CCN(c3ccc(C(=O)NS(=O)(=O)c4ccc(N[C@H](CCN5CCOCC5)CSc5ccccc5)c(S(=O)(=O)C(F)(F)F)c4)cc3)CC2)C1 [ABT-263, navitoclax, reference compound]",Ki,Bcl-w,33.5 nM
same,cell killing in the presence of VHL-L,"MOLT4 cells; MOLT4 cells, with 1 μM and 2 μM VHL-L, 72 h",could not further induce the cell killing in the presence of VHL-L
